{
  "source": "paper PMC5356695",
  "about": "“A phase 1 study of oral ridaforolimus in pediatric patients with advanced solid tumors” (Oncotarget, 2016)",
  "key": {"[1]": {"test_system": "heavily pretreated solid tumors", "parameters": "method as in PMID 23659969", "settings": "cited from earlier work"}, "[2]": {"test_system": "advanced soft tissue and bone sarcomas", "settings": "cited from earlier work"}, "[3]": {"parameters": "method as in PMID 22037923", "settings": "cited from earlier work"}, "[4]": {"test_system": "advanced solid tumors", "assay": "Antitumor activity, investigator assessment by RECIST v1.1", "type": "in vivo, human", "description": "All patients were to have computed tomography or magnetic resonance imaging scans at baseline, every 2 cycles during treatment, and at the time of treatment discontinuation. Local investigator assessment of treatment response was performed using RECIST v1.1 [43]."}, "[5]": {"parameters": "method as in earlier work", "settings": "40 mg once daily 5 days per week, ref data on file with ARIAD Pharmaceuticals, Inc./Merck & Co.; cited from earlier work"}, "[6]": {"test_system": "adults with advanced solid tumors", "settings": "cited from earlier work"}, "[7]": {"assay": "clinical", "settings": "for AUC(0-t) / half-life / concentration at 4 h / concentration at 8 h: human, whole blood", "description": "Whole blood samples (2 mL each) for pharmacokinetic analyses were collected at the following time points: <5 minutes before dosing on days 1 through 5 and at 0.5, 1, 2, 4, 8, 24, and 72 hours after drug administration on day 5 of the first week of the first treatment cycle. Blood concentrations of ridaforolimus were determined using a validated liquid chromatography/tandem mass spectrometry assay as in previous ridaforolimus studies (Charles River Laboratories, Shrewsbury, MA). The pharmacokinetic parameters of AUC0–24h and elimination half-life (t1/2) were determined by noncompartmental modeling using WinNonlin software (Pharsight, Certara, Princeton, NJ)."}, "[8]": {"settings": "7 pediatric patients aged 13 to 17 years"}, "[9]": {"settings": "1 patient with pineoblastoma, 22 mg/m^2"}},
  "note": "Where two headings read alike, the source gives them in different places.",
  "data": [
    {"smiles": "CO[C@H]1C[C@@H]2CC[C@@H](C)[C@@](O)(O2)C(=O)C(=O)N2CCCC[C@H]2C(=O)O[C@H]([C@H](C)C[C@@H]2CC[C@@H](OP(C)(C)=O)[C@H](OC)C2)CC(=O)[C@H](C)/C=C(\\C)[C@@H](O)[C@@H](OC)C(=O)[C@H](C)C[C@H](C)/C=C/C=C/C=C/1C", "note": "[ridaforolimus]", "values": [
      {"measurement": "Stable disease in patients with central nervous system tumors", "setting": "[1]; intravenous 8-16 mg/m^2", "result": "4 of 6"},
      {"measurement": "Stable disease in patients with sarcomas", "setting": "[1]; intravenous 8-16 mg/m^2", "result": "2 of 8"},
      {"measurement": "Patients with stable disease / clinical benefit", "setting": "[1]; intravenous 8-16 mg/m^2 daily for 5 consecutive days every other week, of 15 evaluable (40%)", "result": 6, "unit": "patients"},
      {"measurement": "DLTs", "setting": "[1]; intravenous 8–16 mg/m^2 daily for 5 consecutive days every other week", "result": "no DLTs were observed"},
      {"measurement": "Patients with partial response", "setting": "[2]; [8]", "result": 1},
      {"measurement": "Patients with progressive disease", "setting": "[2]; [8]", "result": 2},
      {"measurement": "Patients with stable disease", "setting": "[2]; [8]", "result": 4},
      {"measurement": "Reduction of risk of progression or death compared with placebo", "setting": "[2]; oral, after benefit from preceding chemotherapy", "result": 28, "unit": "%"},
      {"measurement": "Blood–brain barrier passage", "setting": "[3]", "result": "crosses the blood–brain barrier"},
      {"measurement": "Patients discontinued due to progressive disease", "setting": "[4]; 33 mg/m^2 (n = 13), 77%", "result": 10, "unit": "patients"},
      {"measurement": "Progression-free survival", "setting": "[4]; 1 patient with diffuse intrinsic pontine glioma", "result": "> 42", "unit": "months"},
      {"measurement": "Duration of stable disease", "setting": "[4]; 1 patient with diffuse intrinsic pontine glioma, 33 mg/m^2, as of January 2016", "result": 46, "unit": "cycles"},
      {"measurement": "Duration of stable disease", "setting": "[4]; [9]", "result": 12, "unit": "cycles"},
      {"measurement": "Progression-free survival", "setting": "[4]; [9]", "result": 12.8, "unit": "months"},
      {"measurement": "Partial or complete response", "setting": "[4]; all patients, N = 20", "result": "None of the patients had a partial or complete response"},
      {"measurement": "Patients with evidence of clinical benefit", "setting": "[4]; of the 20 treated pediatric patients (10%)", "result": 2, "unit": "patients"},
      {"measurement": "Day 5 AUC0–24h in adults, estimated geometric mean", "setting": "[5]", "result": "1,739 h•ng/mL"},
      {"measurement": "MTD", "setting": "[6]; intravenous", "result": 18.75, "unit": "mg/day"},
      {"measurement": "Adult RP2D", "setting": "[6]; oral, once daily for 5 days per week", "result": 40, "unit": "mg"},
      {"measurement": "MTD", "setting": "[6]; oral, once daily × 5 days per week regimen", "result": 40, "unit": "mg"},
      {"measurement": "Exposure (day 5 AUC0–24h) higher than adult target level", "setting": "[7]; 28 mg/m^2 vs adult RP2D 40 mg (1,739 h•ng/mL)", "result": "approximately 34%"},
      {"measurement": "BSADN AUC, lower bound of 90% 1-sided confidence interval for geometric mean", "setting": "[7]; 33 mg/m^2", "result": "61.2 h•ng•m^2/(mL•mg)"},
      {"measurement": "C4h, lower bound of 90% 1-sided confidence interval for geometric mean", "setting": "[7]; 33 mg/m^2", "result": 0.154, "unit": "µg/mL"},
      {"measurement": "C8h, lower bound of 90% 1-sided confidence interval for geometric mean", "setting": "[7]; 33 mg/m^2", "result": 0.1, "unit": "µg/mL"},
      {"measurement": "Day 5 AUC0–24h, lower bound of 90% 1-sided confidence interval for geometric mean", "setting": "[7]; 33 mg/m^2", "result": "2,020 h•ng/mL"},
      {"measurement": "t1/2, lower bound of 90% 1-sided confidence interval for geometric mean", "setting": "[7]; 33 mg/m^2", "result": 23.0, "unit": "h"},
      {"measurement": "BSADN AUC (AUC normalized by BSA-adjusted dose), geometric mean", "setting": "[7]; 33 mg/m^2, n = 11", "result": "69.8 h•ng•m^2/(mL•mg)"},
      {"measurement": "Exposure (day 5 AUC0–24h) higher than adult target level", "setting": "[7]; 33 mg/m^2 vs adult RP2D 40 mg (1,739 h•ng/mL)", "result": "~31", "unit": "%"},
      {"measurement": "AUC(0-t)", "setting": "[7]; oral, 22 mg/m2", "result": 1.34, "unit": "µg·h/mL"},
      {"measurement": "half-life", "setting": "[7]; oral, 22 mg/m2, t1/2, arithmetic mean (SD), 22 mg/m^2, n = 3", "result": 25.5, "unit": "h"},
      {"measurement": "half-life", "setting": "[7]; oral, 22 mg/m2, t1/2, geometric mean (CV%), 22 mg/m^2, n = 3", "result": 25.5, "unit": "h"},
      {"measurement": "half-life", "setting": "[7]; oral, 22 mg/m2, t1/2, median (range), 22 mg/m^2, n = 3", "result": 24.5, "unit": "h"},
      {"measurement": "concentration at 4 h", "setting": "[7]; oral, 22 mg/m^2, C4h, arithmetic mean (SD), day 5, 22 mg/m^2, n = 4", "result": 0.139, "unit": "µg/mL"},
      {"measurement": "concentration at 4 h", "setting": "[7]; oral, 22 mg/m^2, C4h, geometric mean (CV%), day 5, 22 mg/m^2, n = 4", "result": 0.131, "unit": "µg/mL"},
      {"measurement": "concentration at 8 h", "setting": "[7]; oral, 22 mg/m^2, C8h, arithmetic mean (SD), day 5, 22 mg/m^2, n = 4", "result": 0.074, "unit": "µg/mL"},
      {"measurement": "concentration at 8 h", "setting": "[7]; oral, 22 mg/m^2, C8h, geometric mean (CV%), day 5, 22 mg/m^2, n = 4", "result": 0.071, "unit": "µg/mL"},
      {"measurement": "AUC(0-t)", "setting": "[7]; oral, 28 mg/m2", "result": 2.33, "unit": "µg·h/mL"},
      {"measurement": "half-life", "setting": "[7]; oral, 28 mg/m2, t1/2, arithmetic mean (SD), 28 mg/m^2, n = 3", "result": 28.2, "unit": "h"},
      {"measurement": "half-life", "setting": "[7]; oral, 28 mg/m2, t1/2, geometric mean (CV%), 28 mg/m^2, n = 3", "result": 27.2, "unit": "h"},
      {"measurement": "half-life", "setting": "[7]; oral, 28 mg/m2, t1/2, median (range), 28 mg/m^2, n = 3", "result": 26.5, "unit": "h"},
      {"measurement": "concentration at 4 h", "setting": "[7]; oral, 28 mg/m^2, C4h, arithmetic mean (SD), day 5, 28 mg/m^2, n = 3", "result": 0.228, "unit": "µg/mL"},
      {"measurement": "concentration at 4 h", "setting": "[7]; oral, 28 mg/m^2, C4h, geometric mean (CV%), day 5, 28 mg/m^2, n = 3", "result": 0.227, "unit": "µg/mL"},
      {"measurement": "concentration at 8 h", "setting": "[7]; oral, 28 mg/m^2, C8h, arithmetic mean (SD), day 5, 28 mg/m^2, n = 3", "result": 0.119, "unit": "µg/mL"},
      {"measurement": "concentration at 8 h", "setting": "[7]; oral, 28 mg/m^2, C8h, geometric mean (CV%), day 5, 28 mg/m^2, n = 3", "result": 0.116, "unit": "µg/mL"},
      {"measurement": "AUC(0-t)", "setting": "[7]; oral, 33 mg/m2", "result": 2.28, "unit": "µg·h/mL"},
      {"measurement": "half-life", "setting": "[7]; oral, 33 mg/m2, t1/2, arithmetic mean (SD), 33 mg/m^2, n = 9", "result": 26.9, "unit": "h"},
      {"measurement": "half-life", "setting": "[7]; oral, 33 mg/m2, t1/2, geometric mean (CV%), 33 mg/m^2, n = 9", "result": 26, "unit": "h"},
      {"measurement": "half-life", "setting": "[7]; oral, 33 mg/m2, t1/2, median (range), 33 mg/m^2, n = 9", "result": 24.9, "unit": "h"},
      {"measurement": "concentration at 4 h", "setting": "[7]; oral, 33 mg/m^2, C4h, arithmetic mean (SD), day 5, 33 mg/m^2, n = 11", "result": 0.2, "unit": "µg/mL"},
      {"measurement": "concentration at 4 h", "setting": "[7]; oral, 33 mg/m^2, C4h, geometric mean (CV%), day 5, 33 mg/m^2, n = 11", "result": 0.184, "unit": "µg/mL"},
      {"measurement": "concentration at 8 h", "setting": "[7]; oral, 33 mg/m^2, C8h, arithmetic mean (SD), day 5, 33 mg/m^2, n = 12", "result": 0.118, "unit": "µg/mL"},
      {"measurement": "concentration at 8 h", "setting": "[7]; oral, 33 mg/m^2, C8h, geometric mean (CV%), day 5, 33 mg/m^2, n = 12", "result": 0.113, "unit": "µg/mL"},
      {"measurement": "half-life", "setting": "[7]; oral, Mean (geometric) elimination half-lives, independent of dose level", "result": "26 to 27", "unit": "h"},
      {"measurement": "Steady state from trough concentrations (predose days 1 through 5)", "setting": "[7]; oral once daily", "result": "steady-state concentrations had been achieved at day 5"},
      {"measurement": "Lag before absorption after dosing", "setting": "[7]; oral, all dose levels", "result": "approximately 2 hours"},
      {"measurement": "Time of highest blood concentrations after dosing", "setting": "[7]; oral, all dose levels", "result": "~4", "unit": "h"}
    ]}
  ]
}
